# Measured values reported in patent publication US8461175B2, “1-pyrazolo[4,3-c]isoquinoline derivatives, preparation thereof and therapeutic use thereof” (Sanofi-Aventis, priority 2009, dated 2013).
# Test system: HeLa Cells (ATCC CCL-2)
# Experiment: Determination of IC50 for HeLa cells, proliferation by 14C-thymidine incorporation
# Assay type: cell-based
# Conditions: Homo sapiens, total treatment 96 h
# Description: Determination of IC50 for HeLa Cells (ATCC CCL-2)
# This test is carried out using adherent tumour cell lines. Their proliferation is measured via the amount of ^14C-thymidine incorporated within the cells. These cells are placed in 96-well Cytostar plates with the culture medium and are incubated for 4 h at 37° C.-5% CO2. The products under test are then added and the plates are replaced in the incubator. ^14C-thymidine is added to the medium after 72 h of treatment and the cells are then incubated for 24 h. The incorporation of ^14C-thymidine is measured using a MicroBeta reader (Perkin Elmer) after these 24 h of “pulse”. The total time of treatment of the cells with the product under test is 96 h.
# For each assay, the plates are prepared at the cell concentrations employed. The products are tested at 10 concentrations in duplicate. The first concentration is usually 10 μM, but it may vary, as may the degree of dilution, depending on the activity level of the products. The serial dilutions are made in pure DMSO and then each concentration is diluted in the culture medium. All of the products are tested in two independent assays.
# • Dulbecco (Gibco 11960-044) • Inactivated foetal calf serum (FCS) (Gibco 10500-056) • Penicillin-Streptomycin-Glutamine (PSG) (Gibco 10378-016) • 96-well Cytostar plate (Amersham RPNQ0162) • DMSO (Sigma D2650) • ^14C-Thymidine (NEN NEC-568)
row,Compound,IC50 [nM]
1,"CS(=O)(=O)N1CCC(Nc2n[nH]c3c2nc(-c2c(F)cccc2F)c2cc(-c4cn[nH]c4)ccc23)CC1 [Example 24, 5-(2,6-difluorophenyl)-N-[1-(methylsulphonyl)piperidin-4-yl]-7-(1H-pyrazol-4-yl)-1H-pyrazolo[4,3-c]isoquinolin-3-amine]",2120
2,"CCS(=O)(=O)N1CCC(Nc2n[nH]c3c2nc(-c2c(F)cccc2F)c2cc(C=NO)ccc23)CC1 [Example 20, 5-(2,6-difluorophenyl)-3-{[1-(ethylsulphonyl)piperidin-4-yl]amino}-1H-pyrazolo[4,3-c]isoquinoline-7-carbaldehyde oxime]",138
3,"CS(=O)(=O)N1CCC(Nc2n[nH]c3c2nc(-c2c(F)cccc2F)c2cc(F)ccc23)CC1 [Example 6, 5-(2,6-difluorophenyl)-7-fluoro-3-{[1-(methylsulphonyl)piperidin-4-yl]amino}-1H-pyrazolo[4,3-c]isoquinoline]",890
4,"CS(=O)(=O)N1CCC(Nc2n[nH]c3c2nc(-c2c(F)cccc2F)c2cc(-c4cn[nH]n4)ccc23)CC1 [Example 25, 5-(2,6-difluorophenyl)-N-[1-(methylsulphonyl)piperidin-4-yl]-7-(2H-1,2,3-triazol-4-yl)-1H-pyrazolo[4,3-c]isoquinolin-3-amine]",2280
5,"CS(=O)(=O)N1CCC(Nc2n[nH]c3c2nc(-c2c(F)cccc2F)c2cc(C#N)ccc23)CC1 [Example 12, 5-(2,6-difluorophenyl)-3-{[1-(methylsulphonyl)piperidin-4-yl]amino}-1H-pyrazolo[4,3-c]isoquinoline-7-carbonitrile]",899
6,"C=Cc1ccc2c(c1)c(-c1c(F)cccc1F)nc1c(NC3CCN(S(C)(=O)=O)CC3)n[nH]c12 [Example 5, 5-(2,6-difluorophenyl)-3-{[1-(methylsulphonyl)piperidin-4-yl]amino}-7-vinyl-1H-pyrazolo[4,3-c]isoquinoline]",2580
7,"CS(=O)(=O)N1CCC(Nc2n[nH]c3c2nc(-c2c(F)cccc2F)c2cc(C(N)=O)ccc23)CC1 [Example 1, 5-(2,6-difluorophenyl)-3-{[1-(methylsulphonyl)piperidin-4-yl]amino}-1H-pyrazolo[4,3-c]isoquinoline-7-carboxamide]",259
8,"CCS(=O)(=O)N1CCC(Nc2n[nH]c3c2nc(-c2c(F)cccc2F)c2cc(C#N)ccc23)CC1 [Example 13, 5-(2,6-difluorophenyl)-3-([1-(ethylsulphonyl)piperidin-4-yl]amino}-1H-pyrazolo[4,3-c]isoquinoline-7-carbonitrile]",954
9,"NS(=O)(=O)N1CCC(Nc2n[nH]c3c2nc(-c2c(F)cccc2F)c2cc(CO)ccc23)CC1 [Example 27, 4-{[5-(2,6-difluorophenyl)-7-(hydroxymethyl)-1H-pyrazolo[4,3-c]isoquinolin-3-yl]amino}piperidine-1-sulphonamide]",456
10,"CCS(=O)(=O)N1CCC(Nc2n[nH]c3c2nc(-c2c(F)cccc2F)c2cc(C(N)=O)ccc23)CC1 [Example 18, 5-(2,6-difluorophenyl)-3-{[1-(ethylsulphonyl)piperidin-4-yl]amino}-1H-pyrazolo[4,3-c]isoquinolin-7-carboxamide]",554
11,"N#Cc1ccc2c(c1)c(-c1c(F)cccc1F)nc1c(NC3CCN(S(=O)(=O)C4CC4)CC3)n[nH]c12 [Example 11, 5-(2,6-difluorophenyl)-3-{[1-(cyclopropylsulphonyl)piperidin-4-yl]amino}-1H-pyrazolo[4,3-c]isoquinoline-7-carbonitrile]",909
12,"CS(=O)(=O)N1CCC(Nc2n[nH]c3c2nc(-c2c(F)cccc2F)c2cc(C(N)=S)ccc23)CC1 [Example 9, 5-(2,6-difluorophenyl)-3-{[1-(methylsulphonyl)piperidin-4-yl]amino}-1H-pyrazolo[4,3-c]isoquinoline-7-carbothioamide]",597
13,"CCS(=O)(=O)N1CCC(Nc2n[nH]c3c2nc(-c2c(F)cccc2F)c2cc(C=O)ccc23)CC1 [Example 19, 5-(2,6-difluorophenyl)-3-{[1-(ethylsulphonyl)piperidin-4-yl]amino}-1H-pyrazolo[4,3-c]isoquinoline-7-carbaldehyde]",451
14,"CS(=O)(=O)N1CCC(Nc2n[nH]c3c2nc(-c2c(F)cccc2F)c2cc(C=NO)ccc23)CC1 [Example 2, 5-(2,6-difluorophenyl)-3-{[1-(methylsulphonyl)piperidin-4-yl]amino}-1H-pyrazolo[4,3-c]isoquinoline-7-carbaldehyde oxime]",100
15,"C#Cc1ccc2c(c1)c(-c1c(F)cccc1F)nc1c(NC3CCN(S(C)(=O)=O)CC3)n[nH]c12 [Example 7, 5-(2,6-difluorophenyl)-3-{[1-(methylsulphonyl)piperidin-4-yl]amino}-7-ethynyl-1H-pyrazolo[4,3-c]isoquinoline]",1500
16,"COC(=O)c1ccc2c(c1)c(-c1c(F)cccc1F)nc1c(NC3CCN(S(C)(=O)=O)CC3)n[nH]c12 [Example 8, Methyl 5-(2,6-difluorophenyl)-3-{[1-(methylsulphonyl)piperidin-4-yl]amino}-1H-pyrazolo[4,3-c]isoquinoline-7-carboxylate]",7280
17,"NC(=O)c1ccc2c(c1)c(-c1c(F)cccc1F)nc1c(NC3CCN(S(=O)(=O)C(F)(F)F)CC3)n[nH]c12 [Example 4, 5-(2,6-difluorophenyl)-3-{[1-(trifluoromethanesulphonyl)piperidin-4-yl]amino}-1H-pyrazolo[4,3-c]isoquinoline-7-carboxamide]",789
18,"NC(=O)c1ccc2c(c1)c(-c1c(F)cccc1F)nc1c(NC3CCN(S(N)(=O)=O)CC3)[nH]nc12 [Example 22, 5-(2,6-difluorophenyl)-3-[(1-sulphamoylpiperidin-4-yl)amino]-2H-pyrazolo[4,3-c]isoquinoline-7-carboxamide]",411
19,"NS(=O)(=O)N1CCC(Nc2n[nH]c3c2nc(-c2c(F)cccc2F)c2cc(F)ccc23)CC1 [Example 28, 4-{[5-(2,6-difluorophenyl)-7-fluoro-1H-pyrazolo[4,3-c]isoquinolin-3-yl]amino}piperidine-1-sulphonamide]",230
20,"N#Cc1ccc2c(c1)c(-c1c(F)cccc1F)nc1c(NC3CCN(S(N)(=O)=O)CC3)n[nH]c12 [Example 26, 4-{[7-cyano-5-(2,6-difluorophenyl)-1H-pyrazolo[4,3-c]isoquinolin-3-yl]amino}piperidine-1-sulphonamide]",1660
21,"NC(=O)c1ccc2c(c1)c(-c1c(F)cccc1F)nc1c(NC3CCN(S(=O)(=O)C4CC4)CC3)n[nH]c12 [Example 14, 5-(2,6-difluorophenyl)-3-{[1-(cyclopropylsulphonyl)piperidin-4-yl]amino}-1H-pyrazolo[4,3-c]isoquinoline-7-carboxamide]",413
22,"CS(=O)(=O)N1CCC(Nc2n[nH]c3c2nc(-c2c(F)cccc2F)c2cc(C=O)ccc23)CC1 [Example 15, 5-(2,6-difluorophenyl)-3-{[1-(methylsulphonyl)piperidin-4-yl]amino}-1H-pyrazolo[4,3-c]isoquinoline-7-carbaldehyde]",488
23,"CS(=O)(=O)N1CCC(Nc2n[nH]c3c2nc(-c2c(F)cccc2F)c2cc(C(=N)NO)ccc23)CC1 [Example 16, 5-(2,6-difluorophenyl)-N-hydroxy-3-{[1-(methylsulphonyl)piperidin-4-yl]amino}-1H-pyrazolo[4,3-c]isoquinoline-7-carboximidamide]",2350

# Same assay, conditions: total treatment 96 h
row,Compound,IC50 [nM]
1,CS(=O)(=O)N1CCC(Nc2n[nH]c3c2nc(-c2c(F)cccc2F)c2cc(CF)ccc23)CC1 [Example 17],263
2,"NS(=O)(=O)N1CCC(Nc2n[nH]c3c2nc(-c2c(F)cccc2F)c2cc(C=NO)ccc23)CC1 (mixture of isomers) [Example 23, 4-({5-(2,6-difluorophenyl)-7-[(E/Z)-(hydroxyimino)methyl]-1H-pyrazolo[4,3-c]isoquinolin-3-yl}amino)piperidine-1-sulphonamide]",126
3,CS(=O)(=O)N1CCC(Nc2n[nH]c3c2nc(-c2c(F)cccc2F)c2cc(CO)ccc23)CC1 [Example 3],248
4,CS(=O)(=O)N1CCC(Nc2n[nH]c3c2nc(-c2c(F)cccc2F)c2ccccc23)CC1 [Example 10],2040
5,CCS(=O)(=O)N1CCC(Nc2n[nH]c3c2nc(-c2c(F)cccc2F)c2cc(CO)ccc23)CC1 [Example 21],338
